Measured values from patent US20110105623A1 (Biogenic Innovations, LLC, priority 2009, published 2011).
Where two headings read alike, the source gives them in different places.

Key:
[1] = test system: Lactobacillus acidophilus; assay: Recovery from Acidophilus milk fortified with MSM into broth without MSM; assay type: cell-based
Procedure: The Acidophilus milk was low fat (Darigold). […] All preparations and plating was conducted at room temperature.
The recovery study was run parallel to the study done on the affects of MSM on growth of Lactobacillus acidophilus in Acidophilus milk fortified with MSM. The recovery growth rate was analyzed on Day 7, Day 14, Day 21 and Day 28. For Table 27, the growth for Day x with no time is calculated from the initial growth study with the dilution factor into the log growth. […] Table 28 takes the value of 2.00 as the starting value.

[2] = test system: normal flora found in the product; details: for Log Growth: rows 0.5-10% MSM

Methylsulfonylmethane [MSM]
Day 21 log recovery growth rate increase from start time of zero ([1]; 5.0% MSM, Hour 24): 6.13 logs | Day 7 log recovery growth rate increase from start time of zero ([1]; 5.0% MSM, Hour 48): 0.47 logs | Day 14 log recovery growth rate increase from start time of zero ([1]; 5.0% MSM, Hour 48): 3.42 logs | Day 21 log recovery growth rate increase from start time of zero ([1]; 5.0% MSM, Hour 48): 3.39 logs | Day 7 log recovery growth rate increase from start time of zero ([1]; 5.0% MSM, Hour 72): −0.19 logs | Day 14 log recovery growth rate increase from start time of zero ([1]; 5.0% MSM, Hour 72): −0.59 logs | Day 21 log recovery growth rate increase from start time of zero ([1]; 5.0% MSM, Hour 72): 0.08 logs | Day 28 log recovery growth rate increase from start time of zero ([1]; 5.0% MSM, Time 0): 0.00 logs | Day 28 log recovery growth rate increase from start time of zero ([1]; 5.0% MSM, Time 24): 5.04 logs | Day 28 log recovery growth rate increase from start time of zero ([1]; 5.0% MSM, Time 48): 7.31 logs | Day 28 log recovery growth rate increase from start time of zero ([1]; 5.0% MSM, Time 72): −0.39 logs | Recovery of Lactobacillus acidophilus in Milk fortified with MSM Day 7, initial start data ([1]; […] MSM, Day 7): 8.50 logs | Recovery of Lactobacillus acidophilus in Milk fortified with MSM Day 7, average recovery ([1]; […] MSM, Day 7-24): 13.16 logs | Recovery of Lactobacillus acidophilus in Milk fortified with MSM Day 7, average recovery ([1]; […] MSM, Day 7-48): 12.36 logs | Recovery of Lactobacillus acidophilus in Milk fortified with MSM Day 7, average recovery ([1]; […] MSM, Day 7-72): 12.60 logs | Recovery of Lactobacillus acidophilus in Milk fortified with MSM Day 14, initial start data ([1]; […] MSM, Day 14-0): 5.33 logs | Recovery of Lactobacillus acidophilus in Milk fortified with MSM Day 14, average recovery ([1]; […] MSM, Day 14-24): 9.87 logs | Recovery of Lactobacillus acidophilus in Milk fortified with MSM Day 14, average recovery ([1]; […] MSM, Day 14-48): 12.32 logs | Recovery of Lactobacillus acidophilus in Milk fortified with MSM Day 14, average recovery ([1]; […] MSM, Day 14-72): 12.57 logs | Recovery of Lactobacillus acidophilus in Milk fortified with MSM Day 21, initial start data ([1]; […] MSM, Day 21): 3.47 logs | Recovery of Lactobacillus acidophilus in Milk fortified with MSM Day 21, average recovery ([1]; […] MSM, Day 21-24): 10.79 logs | Recovery of Lactobacillus acidophilus in Milk fortified with MSM Day 21, average recovery ([1]; […] MSM, Day 21-48): 12.78 logs | Recovery of Lactobacillus acidophilus in Milk fortified with MSM Day 21, average recovery ([1]; […] MSM, Day 21-72): 13.10 logs | Recovery of Lactobacillus acidophilus in Milk fortified with MSM Day 28, initial start data ([1]; […] MSM, Day 28): 1.33 logs | Recovery of Lactobacillus acidophilus in Milk fortified with MSM Day 28, average recovery ([1]; […] MSM, Day 28-24): 6.37 logs | Lag Recovery of Lactobacillus acidophilus in Milk fortified with MSM Day 28 ([1]; […] MSM, Day 28-24, duplicates): 6.37 logs | Recovery of Lactobacillus acidophilus in Milk fortified with MSM Day 28, average recovery ([1]; […] MSM, Day 28-48): 12.57 logs | Recovery of Lactobacillus acidophilus in Milk fortified with MSM Day 28, average recovery ([1]; […] MSM, Day 28-72): 12.66 logs | Day 7 log recovery growth rate increase from start time of zero ([1]; […] MSM, Hour 0): 0.00 logs | Day 14 log recovery growth rate increase from start time of zero ([1]; […] MSM, Hour 0): 0.00 logs | Day 21 log recovery growth rate increase from start time of zero ([1]; […] MSM, Hour 0): 0.00 logs | Day 7 log recovery growth rate increase from start time of zero ([1]; […] MSM, Hour 24): 4.66 logs | Day 14 log recovery growth rate increase from start time of zero ([1]; […] MSM, Hour 24): 4.54 logs | Day 21 log recovery growth rate increase from start time of zero ([1]; […] MSM, Hour 24): 7.32 logs | Day 7 log recovery growth rate increase from start time of zero ([1]; […] MSM, Hour 48): −0.8 logs | Day 14 log recovery growth rate increase from start time of zero ([1]; […] MSM, Hour 48): 2.45 logs | Day 21 log recovery growth rate increase from start time of zero ([1]; […] MSM, Hour 48): 2.00 logs | Day 7 log recovery growth rate increase from start time of zero ([1]; […] MSM, Hour 72): 0.25 logs | Day 14 log recovery growth rate increase from start time of zero ([1]; […] MSM, Hour 72): 0.26 logs | Day 21 log recovery growth rate increase from start time of zero ([1]; […] MSM, Hour 72): 0.32 logs | Day 28 log recovery growth rate increase from start time of zero ([1]; […] MSM, Time 0): 0.00 logs | Day 28 log recovery growth rate increase from start time of zero ([1]; […] MSM, Time 24): 5.04 logs | Day 28 log recovery growth rate increase from start time of zero ([1]; […] MSM, Time 48): 6.20 logs | Day 28 log recovery growth rate increase from start time of zero ([1]; […] MSM, Time 72): 0.09 logs | Log Growth of 40% Milk Fat ([2]; 0.5% MSM, day 0): 0.00 logs | Log Growth of 40% Milk Fat ([2]; 0.5% MSM, day 7): 0.35 logs | Log Growth of 40% Milk Fat ([2]; 0.5% MSM, day 14): 2.32 logs | Log Growth of 40% Milk Fat ([2]; 0.5% MSM, day 21): 4.46 logs | Log Growth of 40% Milk Fat ([2]; 0.5% MSM, day 24): 4.02 logs | Log Growth of 40% Milk Fat ([2]; 0.5% MSM, day 28): 1.95 logs | Log Growth of 40% Milk Fat ([2]; 1.0% MSM, day 7): 0.00 logs | Log Growth of 40% Milk Fat ([2]; 1.0% MSM, day 14): 2.37 logs | Log Growth of 40% Milk Fat ([2]; 1.0% MSM, day 21): 4.35 logs | Log Growth of 40% Milk Fat ([2]; 1.0% MSM, day 24): 3.33 logs | Log Growth of 40% Milk Fat ([2]; 1.0% MSM, day 28): 3.86 logs | Log Growth ([2]; 2% Milk Fat, day 7): 1.59 log | Log Growth of 40% Milk Fat ([2]; 5.0% MSM, day 0): 0.00 logs | Log Growth of 40% Milk Fat ([2]; 5.0% MSM, day 7): 0.80 logs | Log Growth of 40% Milk Fat ([2]; 5.0% MSM, day 14): 0.50 logs | Log Growth of 40% Milk Fat ([2]; 5.0% MSM, day 21): 1.25 logs | Log Growth of 40% Milk Fat ([2]; 5.0% MSM, day 24): 1.03 logs | Log Growth of 40% Milk Fat ([2]; 5.0% MSM, day 28): 0.35 logs | Log Growth of 40% Milk Fat ([2]; 10.0% MSM, day 0): 0.00 logs | Log Growth of 40% Milk Fat ([2]; 10.0% MSM, day 7): 0.00 logs | Log Growth of 40% Milk Fat ([2]; 10.0% MSM, day 14): 1.95 logs | Log Growth of 40% Milk Fat ([2]; 10.0% MSM, day 21): 4.45 logs | Log Growth of 40% Milk Fat ([2]; 10.0% MSM, day 24): 0.85 logs | Log Growth of 40% Milk Fat ([2]; 10.0% MSM, day 28): 0.35 logs | lower than the control by ([2]; 40% milk product, Day 21, 5.0% MSM): 3.22 logs | microbial load ([2]; 40% milk product, Day 21, […] MSM): 2.16 logs | microbial count ([2]; 40% milk product, Day 28, 5.0% and 10.0% MSM): 0.35 logs | Log Growth ([2]; Nonfat Milk, day 7): 1.00 log | Log Growth of 40% Milk Fat ([2]; […] MSM, day 0): 0.00 logs | Log Growth of 40% Milk Fat ([2]; […] MSM, day 7): 0.00 logs | Log Growth of 40% Milk Fat ([2]; […] MSM, day 14): 0.00 logs | Log Growth of 40% Milk Fat ([2]; […] MSM, day 21): 2.16 logs | Log Growth of 40% Milk Fat ([2]; […] MSM, day 24): 3.79 logs | Log Growth of 40% Milk Fat ([2]; […] MSM, day 28): 0.95 logs
